In US20060223837A1 (priority 2005, published 2006):

How the values were obtained:
[1] = system: chronic arthritis; settings: tail vein model; cited from earlier work
[2] = system: neuropathic pain; settings: chronic constriction injury rodent neuropathic pain model; cited from earlier work
[3] = system: CFA-induced mechanical hyperalgesia; settings: literature; cited from earlier work
[4] = system: dextran sulfate induced colitis; settings: animal model; cited from earlier work
[5] = system: cough; settings: capsaicin and citric acid induced cough, guinea pig; cited from earlier work
[6] = molecular target: T1, human VR1 (Homo sapiens, UniProt Q8NER1); assay: Human VR1 [3H]RTX binding assay; settings: for h Binding % I (1 μM) / inhibition at 1 µM: inhibition of [3H]RTX binding at 1 μM; for Ki: [3H]RTX binding, HEK293 membranes; for inhibition at 1 µM: read-out: h Binding % I (1 μM)
T1 construct: expressed in transfected cells; host or cells: HEK293
T1 sequence (Q8NER1 whole entry): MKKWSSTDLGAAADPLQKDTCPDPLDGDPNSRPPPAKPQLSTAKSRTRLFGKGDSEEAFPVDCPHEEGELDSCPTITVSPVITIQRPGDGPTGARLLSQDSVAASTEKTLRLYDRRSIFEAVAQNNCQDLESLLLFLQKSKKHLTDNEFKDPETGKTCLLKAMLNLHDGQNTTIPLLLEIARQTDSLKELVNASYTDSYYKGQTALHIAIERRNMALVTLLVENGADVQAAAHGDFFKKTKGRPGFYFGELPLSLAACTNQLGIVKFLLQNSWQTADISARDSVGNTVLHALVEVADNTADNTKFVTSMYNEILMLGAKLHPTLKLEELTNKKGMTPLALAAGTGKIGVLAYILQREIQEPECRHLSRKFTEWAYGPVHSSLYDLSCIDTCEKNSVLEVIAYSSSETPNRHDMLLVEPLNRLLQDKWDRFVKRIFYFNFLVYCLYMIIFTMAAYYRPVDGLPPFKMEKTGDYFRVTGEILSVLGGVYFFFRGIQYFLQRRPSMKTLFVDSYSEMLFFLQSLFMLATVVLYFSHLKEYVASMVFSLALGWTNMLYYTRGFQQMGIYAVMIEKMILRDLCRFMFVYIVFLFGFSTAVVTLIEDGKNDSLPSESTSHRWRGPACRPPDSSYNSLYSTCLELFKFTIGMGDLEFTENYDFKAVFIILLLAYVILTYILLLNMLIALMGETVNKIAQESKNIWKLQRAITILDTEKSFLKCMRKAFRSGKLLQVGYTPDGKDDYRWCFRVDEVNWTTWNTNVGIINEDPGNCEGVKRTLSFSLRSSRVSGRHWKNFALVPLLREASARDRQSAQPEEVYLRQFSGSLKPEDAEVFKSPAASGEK
In short: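 Inhibition of [3H]resiniferatoxin binding measured on HEK293-hVR1 membranes over 60 min at 37 C, pH 7.4 HEPES buffer containing BSA. Pellet radioactivity counted; 200 nM cold RTX gave nonspecific binding. % inhibition computed and Ki derived from duplicate measurements.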

[7] = molecular target: T1, human VR1; assay: Human VR1 functional assay (FLIPR intracellular Ca2+); format: cell-based; settings: for Emax at 6 µM / Emax at 12 µM / % Response Relative to EC80 of Capsaicin (12 μM): agonist response; for Emax at 6 µM: read-out: % Response Relative to EC80 of Capsaicin (6 μM); for Emax at 12 µM: read-out: % Response Relative to EC80 of Capsaicin (12 μM); for IC50: antagonism of capsaicin-induced Ca2+ increase, read-out: h IC50; for inhibition at 1 µM: read-out: h % I (1 μM); for inhibition at 5 µM: read-out: h % I (5 μM); for EC50: agonist-induced Ca2+ increase, read-out: h EC50
In short: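 Read-out was Ca2+-dye fluorescence by FLIPR: compounds at varying concentrations were added to dye-loaded human VR1 HEK293 cells and monitored 5 min before capsaicin addition ([…], approx. EC80). Dose-response data, averaged over four wells, gave EC50 or IC50.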

[8] = inhibition of capsaicin response
[9] = inhibition of capsaicin response, 10 μM

COc1cccc(C2(O)CCCCC2CN(C)C)c1 (centres unmarked) [tramadol]
pain relief [1]: fully relieved pain

CC(C)(C)c1ccc(NC(=O)N2CCN(c3ncccc3Cl)CC2)cc1 [BCTC]
effect on mechanical hyperalgesia and tactile allodynia [2]: reduced mechanical hyperalgesia and tactile allodynia | effect on hyperalgesia [3]: reduced hyperalgesia

Nc1ccc(O)c(C(=O)O)c1 [5-ASA]
protection against colitis [4]: protects against dextran sulfate induced colitis

CN1CC[C@]23c4c5ccc(O)c4O[C@H]2[C@@H](O)C=C[C@H]3[C@H]1C5 [morphine]
pain relief [1]: fully relieved pain

C=C(C)[C@]12C[C@@H](C)[C@@]34O[C@](Cc5ccccc5)(O[C@@H]1[C@@H]3C=C(COC(=O)Cc1cc(I)c(O)c(OC)c1)C[C@]1(O)C(=O)C(C)=C[C@@H]41)O2 [iodo-resiniferatoxin]
antitussive action [5]: antitussive action

O=C(O)Cc1ccccc1Nc1c(Cl)cccc1Cl [diclofenac]
pain relief [1]: partially effective | effect on hyperalgesia [3]: reversed the hyperalgesic effect of zymosan

CC(C)(C)c1ccc(CCC(=O)Nc2ccc(-c3cccc(O)c3)c3ccccc23)cc1 [Cpd 82]
h Binding % I (1 μM) [6]: 28% | h % I (5 μM) [7, 8]: 39%

CC(=O)Nc1cccc(-c2ccc(NC(=O)CCc3ccc(C(C)(C)C)cc3)cc2)c1 [Cpd 16]
Ki [6]: 169 nM | inhibition at 1 µM [6]: 68% | Emax at 6 µM [7]: 63% | Emax at 12 µM [7]: 101%

O=C(CCc1ccc(C(F)(F)F)cc1)Nc1ccc(-c2cccc(CO)c2)cc1 [Cpd 79]
h Binding % I (1 μM) [6]: 19% | % Response Relative to EC80 of Capsaicin (12 μM) [7]: 74%

CC(=O)Nc1cccc(-c2ccc(NC(=O)CCc3ccc(C(F)(F)F)cc3)c3ccccc23)c1 [Cpd 84]
h Binding % I (1 μM) [6]: 1% | h % I (5 μM) [7, 8]: 43%

CC(=O)Nc1cccc(-c2ccc(NC(=O)CCc3ccc(C(C)(C)C)cc3)cc2C(=O)O)c1 [Cpd 73]
h Binding % I (1 μM) [6]: 1% | h % I (10 μM) [7, 9]: 20%

Cc1cc(NC(=O)/C=C/c2ccc(N(C)C3CCCCC3)cc2)cnc1-n1cnc(Cl)c1Cl [Cpd 241, trans-3-[4-(Cyclohexyl-methyl-amino)-phenyl]-N-[6-(4,5-dichloro-imidazol-1-yl)-5-methyl-pyridin-3-yl]-acrylamide]
Ki [6]: 79.8 nM | IC50 [7]: 396 nM | inhibition at 1 µM [7, 8]: 92%

COc1ccc2c(c1)c(CC(=O)O)c(C)n2C(=O)c1ccc(Cl)cc1 [indomethacin]
pain relief [1]: partially effective

Cc1cc(NC(=O)CCc2ccc(C(C)(C)C)cc2)ccc1-c1ccc(CO)cc1 [Cpd 99]
Ki [6]: 29 nM | IC50 [7]: 209 nM | inhibition at 1 µM [7, 8]: 97% | inhibition at 5 µM [7, 8]: 79%

Cc1cc(NC(=O)CCc2ccc(C(C)(C)C)cc2)cnc1-c1cccc([N+](=O)[O-])c1 [Cpd 260]
Ki [6]: 391 nM | inhibition at 5 µM [7, 8]: 93%

CC(C)(C)c1ccc(CCC(=O)Nc2ccc(-c3cccc(NC(N)=O)c3)cc2)cc1 [Cpd 44]
Ki [6]: 52 nM | inhibition at 1 µM [6]: 97% | Emax at 12 µM [7]: 102% | EC50 [7]: 289 nM

Cc1cn(-c2ccc(NC(=O)CCc3ccc(C(F)(F)F)cc3)cc2C(F)(F)F)cn1 [Cpd 204, N-[4-(4-Methyl-imidazol-1-yl)-3-trifluoromethyl-phenyl]-3-(4-trifluoromethyl-phenyl)-propionamide]
Ki [6]: 31.9 nM | IC50 [7]: 37 nM | inhibition at 1 µM [7, 8]: 100%

CC(C)(C)c1ccc(CCC(=O)Nc2ccc(-c3ccc(O)cc3)c(CO)c2)cc1 [Cpd 94]
Ki [6]: 42 nM | Emax at 6 µM [7]: 115% | EC50 [7]: 94 nM | inhibition at 1 µM [7, 8]: 92%

CC(C)(C)c1ccc(CCC(=O)Nc2ccc(C3CN=CO3)cc2)cc1 (centres unmarked) [Cpd 194]
h Binding % I (1 μM) [6]: 45% | h % I (5 μM) [7, 8]: 94%

CC(C)(C)c1ccc(CCC(=O)Nc2ccc(-c3cccc(C(N)=O)c3)cc2)cc1 [Cpd 31, 4′-[3-(4-tert-butyl-phenyl)-propionylamino]-biphenyl-3-carboxylic acid amide]
inhibition at 1 µM [6]: 4% | inhibition at 10 µM ([7]; inhibition of capsaicin response, 10 μM, read-out: h % I (10 μM)): 28%

O=C(CCc1ccc(C(F)(F)F)cc1)Nc1ccc(-c2ccc(O)cc2)c(C(F)(F)F)c1 [Cpd 229]
Ki [6]: 99.2 nM | IC50 [7]: 195 nM | inhibition at 5 µM [7, 8]: 100%

Cc1cc(NC(=O)CCc2ccc(C(C)(C)C)cc2)ccc1-c1ccncc1 [Cpd 180]
Ki [6]: 42 nM | Emax at 6 µM [7]: 96% | inhibition at 1 µM [7, 8]: 91%

CC(C)(C)c1ccc(CCC(=O)Nc2ccccc2-c2cccc(CO)c2)cc1 [Cpd 19]
h Binding % I (1 μM) [6]: 1% | h % I (10 μM) [7, 9]: 20%

CC(C)(C)c1ccc(CCC(=O)Nc2cccc(-c3ccc(CO)cc3)c2)cc1 [Cpd 22]
h Binding % I (1 μM) [6]: 1% | h % I (10 μM) [7, 9]: 1%

CC(C)(C)c1ccc(CCC(=O)Nc2cccc(-c3ccc(O)cc3)c2)cc1 [Cpd 2]
h Binding % I (1 μM) [6]: 11% | h % I (10 μM) [7, 9]: 41%

Cc1cn(-c2ccc(NC(=O)/C=C/c3ccc(S(=O)(=O)C(F)(F)F)cc3)cc2C(F)(F)F)cn1 [Cpd 205, trans-N-[4-(4-Methyl-imidazol-1-yl)-3-trifluoromethyl-phenyl]-3-(4-trifluoromethanesulfonyl-phenyl)-acrylamide]
Ki [6]: 44.4 nM | IC50 [7]: 38 nM | inhibition at 1 µM [7, 8]: 100%

CC(C)(C)c1ccc(CCC(=O)Nc2ccc(-c3cccc(O)c3)cc2)cc1 [Cpd 62]
h Binding % I (1 μM) [6]: 23% | h % I (5 μM) [7, 8]: 16%

O=C(CCc1ccc(C(F)(F)F)cc1)Nc1ccc(-c2ccccc2O)cc1 [Cpd 76]
Ki [6]: 421 nM | inhibition at 1 µM [6]: 50% | Emax at 12 µM [7]: 77%

O=C(CCc1ccc(C(F)(F)F)cc1)Nc1ccc(-n2cnc(Cl)c2Cl)c(C(F)(F)F)c1 [Cpd 218]
Ki [6]: 19.9 nM | IC50 [7]: 97.2 nM | inhibition at 5 µM [7, 8]: 101%

O=C(CCc1ccc(C(F)(F)F)cc1)Nc1cnc(-c2cccc(O)c2)c(C(F)(F)F)c1 [Cpd 210, N-[6-(3-Hydroxy-phenyl)-5-trifluoromethyl-pyridin-3-yl]-3-(4-trifluoromethyl-phenyl)-propionamide]
Ki [6]: 54.5 nM | IC50 [7]: 57 nM | inhibition at 5 µM [7, 8]: 100%

CC1=NN(c2ccc(NC(=O)CCc3ccc(C(C)(C)C)cc3)cc2)C(=O)C1 [Cpd 201]
h Binding % I (1 μM) [6]: 1% | h % I (5 μM) [7, 8]: 57%

CC(C)(C)c1csc(CCC(=O)Nc2ccc(-c3ccncc3)cc2)c1 [Cpd 138]
Ki [6]: 461 nM | h Binding % I (1 μM) [6]: 61% | % Response Relative to EC80 of Capsaicin (12 μM) [7]: 113%

Cc1cc(NC(=O)CCc2ccc(C(C)(C)C)cc2)ccc1-c1cccnc1 [Cpd 179]
Ki [6]: 67 nM | IC50 [7]: 266 nM | inhibition at 1 µM [7, 8]: 81% | inhibition at 5 µM [7, 8]: 100%

O=C(CCc1ccc(C(F)(F)F)cc1)Nc1ccc(-n2ccnc2)c(C(F)(F)F)c1 [Cpd 207]
Ki [6]: 47.8 nM | IC50 [7]: 40.2 nM | inhibition at 1 µM [7, 8]: 95% | inhibition at 5 µM [7, 8]: 100%

O=C(CCc1ccc(C(F)(F)F)cc1)Nc1ccc(-c2cccc(O)c2)c2ccccc12 [Cpd 85]
h Binding % I (1 μM) [6]: 1% | h % I (5 μM) [7, 8]: 21%
